# Results: patent publication US20090143279A1 (priority 2007, published 2009)
# Test system: mitochondrial membrane potential
# Format: cell-based, mouse
# Conditions: not given
Compound,ΔΨm,ΔΨm (composite Z-score vs DMSO)
CN(C)c1nc(N(C)C)nc(N(C)C)n1 [altretamine],−0.440,
O=C(O)c1cc([N+](=O)[O-])ccc1NCCCc1ccccc1 [5-nitro-2-phenylpropylaminobenzoic acid],,−0.937
CC[C@H](C)[C@H](NC)C(=O)O [N-methylisoleucine],−0.210,
Cc1c(N(C)CS(=O)(=O)[O-])c(=O)n(-c2ccccc2)n1C.[Na+] [dipyrone],−0.738,

# Same assay, conditions: 20 μM; composite Z-score vs DMSO
row,Compound,ΔΨm
1,CN(C)c1nc(N(C)C)nc(N(C)C)n1 [altretamine],−0.322
2,Clc1ccc(C(c2ccccc2Cl)C(Cl)Cl)cc1 (stereo not shown) [mitotane],−0.542

# Same assay, conditions: Conc 20 μM; normalized score vs mock-treated (DMSO) wells
row,Compound,ΔΨm (composite Z-score)
1,CC1CCC(C(C)C)C(OC(=O)c2ccccc2)C1 (stereo not shown) [menthyl benzoate],0.016

# Same assay, conditions: composite Z-score vs DMSO wells; Conc 20 μM
row,Compound,ΔΨm
1,Cc1c(N(C)CS(=O)(=O)[O-])c(=O)n(-c2ccccc2)n1C.[Na+] [dipyrone],−0.760

# Test system: reactive oxygen species
# Format: cell-based, mouse
# Conditions: not given
Compound,ROS,ROS (composite Z-score vs DMSO)
CN(C)c1nc(N(C)C)nc(N(C)C)n1 [altretamine],0.462,
O=C(O)c1cc([N+](=O)[O-])ccc1NCCCc1ccccc1 [5-nitro-2-phenylpropylaminobenzoic acid],,0.872
CC[C@H](C)[C@H](NC)C(=O)O [N-methylisoleucine],0.300,
Cc1c(N(C)CS(=O)(=O)[O-])c(=O)n(-c2ccccc2)n1C.[Na+] [dipyrone],−0.683,

# Same assay, conditions: 20 μM; composite Z-score vs DMSO
row,Compound,ROS
1,CN(C)c1nc(N(C)C)nc(N(C)C)n1 [altretamine],0.103
2,Clc1ccc(C(c2ccccc2Cl)C(Cl)Cl)cc1 (stereo not shown) [mitotane],0.460

# Same assay, conditions: Conc 20 μM; normalized score vs mock-treated (DMSO) wells
row,Compound,ROS (composite Z-score)
1,CC1CCC(C(C)C)C(OC(=O)c2ccccc2)C1 (stereo not shown) [menthyl benzoate],1.375

# Same assay, conditions: composite Z-score vs DMSO wells; Conc 20 μM
row,Compound,ROS
1,Cc1c(N(C)CS(=O)(=O)[O-])c(=O)n(-c2ccccc2)n1C.[Na+] [dipyrone],−1.148

# Test system: OXPHOS gene expression
# Format: cell-based, mouse
# Conditions: not given
Compound,GE-HTS,GE-HTS (composite Z-score vs DMSO)
CN(C)c1nc(N(C)C)nc(N(C)C)n1 [altretamine],0.884,
O=C(O)c1cc([N+](=O)[O-])ccc1NCCCc1ccccc1 [5-nitro-2-phenylpropylaminobenzoic acid],,0.038
CC[C@H](C)[C@H](NC)C(=O)O [N-methylisoleucine],0.772,

# Same assay, conditions: 20 μM; composite Z-score vs DMSO
row,Compound,GE-HTS
1,CN(C)c1nc(N(C)C)nc(N(C)C)n1 [altretamine],0.379
2,Clc1ccc(C(c2ccccc2Cl)C(Cl)Cl)cc1 (stereo not shown) [mitotane],−0.030

# Same assay, conditions: Conc 20 μM; normalized score vs mock-treated (DMSO) wells
row,Compound,GE-HTS (composite Z-score)
1,CC1CCC(C(C)C)C(OC(=O)c2ccccc2)C1 (stereo not shown) [menthyl benzoate],−0.115

# Same assay, conditions: composite Z-score vs DMSO wells; Conc 20 μM
row,Compound,GE-HTS
1,Cc1c(N(C)CS(=O)(=O)[O-])c(=O)n(-c2ccccc2)n1C.[Na+] [dipyrone],−0.955

# Test system: nuOXPHOS transcripts
# Format: cell-based, mouse
# Conditions: not given
Compound,nucOX,nucOX (composite Z-score vs DMSO)
CN(C)c1nc(N(C)C)nc(N(C)C)n1 [altretamine],0.750,
O=C(O)c1cc([N+](=O)[O-])ccc1NCCCc1ccccc1 [5-nitro-2-phenylpropylaminobenzoic acid],,0.089
CC[C@H](C)[C@H](NC)C(=O)O [N-methylisoleucine],0.676,

# Same assay, conditions: 20 μM; composite Z-score vs DMSO
row,Compound,nucOX
1,CN(C)c1nc(N(C)C)nc(N(C)C)n1 [altretamine],0.488
2,Clc1ccc(C(c2ccccc2Cl)C(Cl)Cl)cc1 (stereo not shown) [mitotane],0.072

# Same assay, conditions: Conc 20 μM; normalized score vs mock-treated (DMSO) wells
row,Compound,nucOX (composite Z-score)
1,CC1CCC(C(C)C)C(OC(=O)c2ccccc2)C1 (stereo not shown) [menthyl benzoate],0.047

# Same assay, conditions: composite Z-score vs DMSO wells; Conc 20 μM
row,Compound,nucOX
1,Cc1c(N(C)CS(=O)(=O)[O-])c(=O)n(-c2ccccc2)n1C.[Na+] [dipyrone],−0.930

# Test system: mtOXPHOS transcripts
# Format: cell-based, mouse
# Conditions: not given
Compound,mitoOX,mitoOX (composite Z-score vs DMSO)
CN(C)c1nc(N(C)C)nc(N(C)C)n1 [altretamine],0.972,
O=C(O)c1cc([N+](=O)[O-])ccc1NCCCc1ccccc1 [5-nitro-2-phenylpropylaminobenzoic acid],,−0.075
CC[C@H](C)[C@H](NC)C(=O)O [N-methylisoleucine],0.850,

# Same assay, conditions: 20 μM; composite Z-score vs DMSO
row,Compound,mitoOX
1,CN(C)c1nc(N(C)C)nc(N(C)C)n1 [altretamine],0.069
2,Clc1ccc(C(c2ccccc2Cl)C(Cl)Cl)cc1 (stereo not shown) [mitotane],−0.244

# Same assay, conditions: Conc 20 μM; normalized score vs mock-treated (DMSO) wells
row,Compound,mitoOX (composite Z-score)
1,CC1CCC(C(C)C)C(OC(=O)c2ccccc2)C1 (stereo not shown) [menthyl benzoate],−0.336

# Same assay, conditions: composite Z-score vs DMSO wells; Conc 20 μM
row,Compound,mitoOX
1,Cc1c(N(C)CS(=O)(=O)[O-])c(=O)n(-c2ccccc2)n1C.[Na+] [dipyrone],−0.820

# Test system: cytochrome c
# Format: cell-based, mouse
# Conditions: not given
Compound,cyt c,cyt c (composite Z-score vs DMSO)
CN(C)c1nc(N(C)C)nc(N(C)C)n1 [altretamine],0.040,
O=C(O)c1cc([N+](=O)[O-])ccc1NCCCc1ccccc1 [5-nitro-2-phenylpropylaminobenzoic acid],,0.412
CC[C@H](C)[C@H](NC)C(=O)O [N-methylisoleucine],−0.451,
Cc1c(N(C)CS(=O)(=O)[O-])c(=O)n(-c2ccccc2)n1C.[Na+] [dipyrone],0.356,

# Same assay, conditions: 20 μM; composite Z-score vs DMSO
row,Compound,cyt c
1,CN(C)c1nc(N(C)C)nc(N(C)C)n1 [altretamine],−0.631
2,Clc1ccc(C(c2ccccc2Cl)C(Cl)Cl)cc1 (stereo not shown) [mitotane],−0.216

# Same assay, conditions: Conc 20 μM; normalized score vs mock-treated (DMSO) wells
row,Compound,cyt c (composite Z-score)
1,CC1CCC(C(C)C)C(OC(=O)c2ccccc2)C1 (stereo not shown) [menthyl benzoate],−0.724

# Same assay, conditions: composite Z-score vs DMSO wells; Conc 20 μM
row,Compound,cyt c
1,Cc1c(N(C)CS(=O)(=O)[O-])c(=O)n(-c2ccccc2)n1C.[Na+] [dipyrone],0.337

# Test system: C2C12 myotubes
# Conditions: not given
Compound,Viability,Viability (composite Z-score vs DMSO)
CN(C)c1nc(N(C)C)nc(N(C)C)n1 [altretamine],−0.533,
O=C(O)c1cc([N+](=O)[O-])ccc1NCCCc1ccccc1 [5-nitro-2-phenylpropylaminobenzoic acid],,−0.939
CC[C@H](C)[C@H](NC)C(=O)O [N-methylisoleucine],1.026,
Cc1c(N(C)CS(=O)(=O)[O-])c(=O)n(-c2ccccc2)n1C.[Na+] [dipyrone],−0.607,

# Same assay, conditions: 20 μM; composite Z-score vs DMSO
row,Compound,Viability
1,CN(C)c1nc(N(C)C)nc(N(C)C)n1 [altretamine],−0.315
2,Clc1ccc(C(c2ccccc2Cl)C(Cl)Cl)cc1 (stereo not shown) [mitotane],−1.631

# Same assay, conditions: Conc 20 μM; normalized score vs mock-treated (DMSO) wells
row,Compound,Viability (composite Z-score)
1,CC1CCC(C(C)C)C(OC(=O)c2ccccc2)C1 (stereo not shown) [menthyl benzoate],−0.151

# Same assay, conditions: composite Z-score vs DMSO wells; Conc 20 μM
row,Compound,Viability
1,Cc1c(N(C)CS(=O)(=O)[O-])c(=O)n(-c2ccccc2)n1C.[Na+] [dipyrone],−0.809

# Test system: cellular dehydrogenase activity
# Conditions: not given
Compound,MTT,MTT (composite Z-score vs DMSO)
CN(C)c1nc(N(C)C)nc(N(C)C)n1 [altretamine],−0.442,
O=C(O)c1cc([N+](=O)[O-])ccc1NCCCc1ccccc1 [5-nitro-2-phenylpropylaminobenzoic acid],,−0.786
CC[C@H](C)[C@H](NC)C(=O)O [N-methylisoleucine],0.372,
Cc1c(N(C)CS(=O)(=O)[O-])c(=O)n(-c2ccccc2)n1C.[Na+] [dipyrone],−1.243,

# Same assay, conditions: 20 μM; composite Z-score vs DMSO
row,Compound,MTT
1,CN(C)c1nc(N(C)C)nc(N(C)C)n1 [altretamine],−1.416
2,Clc1ccc(C(c2ccccc2Cl)C(Cl)Cl)cc1 (stereo not shown) [mitotane],−1.708

# Same assay, conditions: Conc 20 μM; normalized score vs mock-treated (DMSO) wells
row,Compound,MTT (composite Z-score)
1,CC1CCC(C(C)C)C(OC(=O)c2ccccc2)C1 (stereo not shown) [menthyl benzoate],−1.026

# Same assay, conditions: composite Z-score vs DMSO wells; Conc 20 μM
row,Compound,MTT
1,Cc1c(N(C)CS(=O)(=O)[O-])c(=O)n(-c2ccccc2)n1C.[Na+] [dipyrone],−1.908
